Experimental data taken from patent US10034861B2 (priority 2016, dated 2018).
Where two headings read alike, the source gives them in different places.

Key:
Assay type in all cases: biochemical
PDE1A = PDE1A (Homo sapiens (Human), UniProt P54750); assay: biochemical; settings: 15 nM tritium labelled cAMP, 1 hr at room temperature, SPA beads
Text: (§1) Table 1 lists the IC50 value for inhibition of PDE1 by the compounds of the invention. […] PDE1 assays are described in the Experimental Section.

PDE1C = PDE1C (Homo sapiens (Human), UniProt Q14123); assay: biochemical
PDE1C, sequence (Q14123 whole entry): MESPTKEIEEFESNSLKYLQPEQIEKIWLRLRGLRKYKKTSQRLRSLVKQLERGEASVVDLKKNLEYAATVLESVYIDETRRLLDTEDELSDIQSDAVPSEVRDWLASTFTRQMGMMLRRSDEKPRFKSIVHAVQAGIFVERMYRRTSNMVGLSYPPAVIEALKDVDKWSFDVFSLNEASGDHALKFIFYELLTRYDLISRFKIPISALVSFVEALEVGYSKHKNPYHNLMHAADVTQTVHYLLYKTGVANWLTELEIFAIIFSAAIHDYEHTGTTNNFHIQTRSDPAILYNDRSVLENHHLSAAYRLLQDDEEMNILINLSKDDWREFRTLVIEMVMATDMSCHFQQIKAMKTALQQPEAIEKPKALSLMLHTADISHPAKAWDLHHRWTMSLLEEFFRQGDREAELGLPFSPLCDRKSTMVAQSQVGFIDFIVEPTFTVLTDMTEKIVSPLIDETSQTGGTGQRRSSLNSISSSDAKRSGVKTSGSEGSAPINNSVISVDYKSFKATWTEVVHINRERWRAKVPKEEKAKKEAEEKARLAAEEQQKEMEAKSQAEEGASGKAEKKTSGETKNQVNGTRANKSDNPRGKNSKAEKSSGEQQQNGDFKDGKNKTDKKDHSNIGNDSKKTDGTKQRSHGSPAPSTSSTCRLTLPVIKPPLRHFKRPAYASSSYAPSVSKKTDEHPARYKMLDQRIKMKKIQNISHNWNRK
Text: as §1

PDE1B = PDE1B (Homo sapiens (Human), UniProt Q01064); assay: PDE1 inhibition assay (PDE1B); settings: 15 nM tritium labelled cAMP, 1 hr at room temperature, SPA beads
PDE1B, sequence (Q01064 whole entry): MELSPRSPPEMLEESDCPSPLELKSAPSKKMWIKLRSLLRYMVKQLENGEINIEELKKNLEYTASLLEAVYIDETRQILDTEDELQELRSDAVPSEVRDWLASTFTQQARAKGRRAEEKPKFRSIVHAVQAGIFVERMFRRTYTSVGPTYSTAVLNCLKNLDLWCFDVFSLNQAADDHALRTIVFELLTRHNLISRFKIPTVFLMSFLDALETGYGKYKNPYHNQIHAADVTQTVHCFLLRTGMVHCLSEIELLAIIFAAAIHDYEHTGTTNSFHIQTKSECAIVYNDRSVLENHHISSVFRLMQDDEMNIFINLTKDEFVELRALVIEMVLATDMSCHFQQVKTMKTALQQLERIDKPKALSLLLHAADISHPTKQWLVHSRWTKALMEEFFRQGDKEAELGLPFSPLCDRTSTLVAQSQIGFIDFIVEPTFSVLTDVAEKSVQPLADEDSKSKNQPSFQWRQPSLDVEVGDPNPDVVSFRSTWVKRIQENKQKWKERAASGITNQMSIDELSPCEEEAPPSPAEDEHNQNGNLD
Text: as §1

[1] = 15 nM tritium labelled cAMP, 1 hr at room temperature, SPA beads

PDE1A, sequence (P54750 whole entry): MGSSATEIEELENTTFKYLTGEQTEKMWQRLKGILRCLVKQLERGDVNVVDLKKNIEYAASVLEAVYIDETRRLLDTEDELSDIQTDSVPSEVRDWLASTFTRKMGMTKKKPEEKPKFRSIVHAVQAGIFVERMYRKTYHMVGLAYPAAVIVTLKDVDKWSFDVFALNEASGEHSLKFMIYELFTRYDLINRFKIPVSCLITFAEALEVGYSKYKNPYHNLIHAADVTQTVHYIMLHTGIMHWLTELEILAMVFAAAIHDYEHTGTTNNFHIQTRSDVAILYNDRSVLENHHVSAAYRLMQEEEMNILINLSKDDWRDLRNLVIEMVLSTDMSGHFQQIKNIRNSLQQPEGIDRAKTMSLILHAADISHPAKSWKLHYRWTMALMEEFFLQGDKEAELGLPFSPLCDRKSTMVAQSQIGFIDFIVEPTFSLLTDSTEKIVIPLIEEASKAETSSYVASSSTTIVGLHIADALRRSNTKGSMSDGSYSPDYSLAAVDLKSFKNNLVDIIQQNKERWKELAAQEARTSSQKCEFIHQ

Row | Compound | IC50 (PDE1A) | IC50 (PDE1C; [1]) | also measured
1 | CCCOc1ncccc1-c1cc(NCc2cc[nH]n2)c2c(n1)c(C)nn2C(C)CC (single isomer, unassigned) [Example 135, 3-methyl-1-[1-methylpropyl]-5-(2-propoxy-3-pyridyl)-N-(1H-pyrazol-3-ylmethyl)pyrazolo[4,3-b]pyridin-7-amine] | 1.9 nM | 3.6 nM | –
2 | CCOc1ncccc1-c1cc(NCc2ccncn2)c2c(n1)c(C)nn2C(C)C [Example 73, 5-(2-ethoxy-3-pyridyl)-1-isopropyl-3-methyl-N-(pyrimidin-4-ylmethyl)pyrazolo[4,3-b]pyridin-7-amine] | 81 nM | 140 nM | –
3 | CCOc1ncccc1-c1cc(NCc2cc(C)[nH]n2)c2c(n1)c(C)nn2C(C)CC (single isomer, unassigned) [Example 131, 5-(2-ethoxy-3-pyridyl)-3-methyl-1-[1-methylpropyl]-N-[(5-methyl-1H-pyrazol-3-yl)methyl]pyrazolo[4,3-b]pyridin-7-amine] | – | – | IC50 (PDE1B; PDE1B, IC50 (nM)): 0.042 nM
4 | CCOc1ncccc1-c1cc(NCc2noc(C)n2)c2c(cnn2C(C)C)n1 [Example 43, 5-(2-ethoxy-3-pyridyl)-1-isopropyl-N-[(5-methyl-1,2,4-oxadiazol-3-yl)methyl]pyrazolo[4,3-b]pyridin-7-amine] | 30 nM | 80 nM | –
5 | CCCOc1ncccc1-c1cc(NCc2cn[nH]c2)c2c(n1)c(C)nn2C(C)C [Example 196, 1-isopropyl-3-methyl-5-(2-propoxy-3-pyridyl)-N-(1H-pyrazol-4-ylmethyl)pyrazolo[4,3-b]pyridin-7-amine] | 18 nM | 27 nM | –
6 | CCOc1ncccc1-c1cc(OCc2cnc(C)o2)c2c(n1)c(C)nn2C(C)C [Example 72, 5-[[5-(2-ethoxy-3-pyridyl)-1-isopropyl-3-methyl-pyrazolo[4,3-b]pyridin-7-yl]oxymethyl]-2-methyl-oxazole] | 14 nM | 39 nM | –
7 | Cc1nn(C(C)C)c2c(NCc3cnn(C)c3)cc(-c3cccnc3N(C)C)nc12 [Example 201, 5-[2-(dimethylamino)-3-pyridyl]-1-isopropyl-3-methyl-N-[(1-methylpyrazol-4-yl)methyl]pyrazolo[4,3-b]pyridin-7-amine] | – | – | IC50 (PDE1B; read-out: PDE1B, IC50): 230 nM
8 | CCOc1ncccc1-c1cc(NCc2nnn(C)n2)c2c(n1)c(C)nn2C(C)C [Example 8, 5-(2-ethoxy-3-pyridyl)-1-isopropyl-3-methyl-N-[(2-methyltetrazol-5-yl)methyl]pyrazolo[4,3-b]pyridin-7-amine] | 2.9 nM | 8.9 nM | –
9 | CCOc1ncccc1-c1cc(NCc2nnco2)c2c(n1)c(C)nn2C(C)C [Example 59, 5-(2-ethoxy-3-pyridyl)-1-isopropyl-3-methyl-N-(1,3,4-oxadiazol-2-ylmethyl)pyrazolo[4,3-b]pyridin-7-amine] | 55 nM | 120 nM | –
10 | CCOc1ncccc1-c1cc(NCc2cc[nH]n2)c2c(cnn2C(C)CC)n1 (single isomer, unassigned) [Example 137, 5-(2-ethoxy-3-pyridyl)-1-[1-methylpropyl]-N-(1H-pyrazol-3-ylmethyl)pyrazolo[4,3-b]pyridin-7-amine] | 180 nM | – | IC50 (PDE1C): 340 nM
11 | CCCn1cc(CNc2cc(-c3cccnc3OCC)nc3c(C)nn(C(C)C)c23)cn1 [Example 110, 5-(2-ethoxy-3-pyridyl)-1-isopropyl-3-methyl-N-[(1-propylpyrazol-4-yl)methyl]pyrazolo[4,3-b]pyridin-7-amine] | 11 nM | 8.5 nM | –
12 | Cc1nn(C(C)C)c2c(NCc3cccnc3C(F)(F)F)cc(-c3ccc[nH]c3=O)nc12 [Example 193, 3-[1-isopropyl-3-methyl-7-[[2-(trifluoromethyl)-3-pyridyl]methylamino]pyrazolo[4,3-b]pyridin-5-yl]-1H-pyridin-2-one] | 320 nM | 880 nM | –
13 | CCOc1ncccc1-c1cc(NCc2cc[nH]n2)c2c(n1)c(C)nn2C(C)CC (single isomer, unassigned) [Example 120, 5-(2-ethoxy-3-pyridyl)-3-methyl-1-[1-methylpropyl]-N-(1H-pyrazol-3-ylmethyl)pyrazolo[4,3-b]pyridin-7-amine] | – | – | IC50 (PDE1C): 7.6 nM
14 | CCOc1ncccc1-c1cc(NCc2cc(C)no2)c2c(n1)c(C)nn2C(C)C [Example 10, 5-(2-ethoxy-3-pyridyl)-1-isopropyl-3-methyl-N-[(3-methylisoxazol-5-yl)methyl]pyrazolo[4,3-b]pyridin-7-amine] | 4.1 nM | 14 nM | –
15 | CCOc1ncccc1-c1cc(NCc2cncc(OC)c2)c2c(n1)c(C)nn2C(C)CC (single isomer, unassigned; enantiomer 2) [Example 125, 5-(2-ethoxy-3-pyridyl)-N-[(5-methoxy-3-pyridyl)methyl]-3-methyl-1-[1-methylpropyl]pyrazolo[4,3-b]pyridin-7-amine, enantiomer 2] | – | – | IC50 (PDE1B; PDE1B, IC50 (nM)): 0.32 nM
16 | CCOc1ncccc1-c1cc(NCc2cc(C)no2)c2c(cnn2C(C)C)n1 [Example 42, 5-(2-ethoxy-3-pyridyl)-1-isopropyl-N-[(3-methylisoxazol-5-yl)methyl]pyrazolo[4,3-b]pyridin-7-amine] | 82 nM | 180 nM | –

Row | Compound | IC50 (PDE1A) | IC50 (PDE1C; [1]) | also measured
17 | CCOc1ncccc1-c1cc(NCc2nncn2C)c2c(n1)c(C)nn2C(C)C [Example 162, 5-(2-ethoxy-3-pyridyl)-1-isopropyl-3-methyl-N-[(4-methyl-1,2,4-triazol-3-yl)methyl]pyrazolo[4,3-b]pyridin-7-amine] | 100 nM | 180 nM | –
18 | CCOc1ncccc1-c1cc(NCc2ncccn2)c2c(n1)c(C)nn2C(C)C [Example 74, 5-(2-ethoxy-3-pyridyl)-1-isopropyl-3-methyl-N-(pyrimidin-2-ylmethyl)pyrazolo[4,3-b]pyridin-7-amine] | 2.1 nM | 8.1 nM | –
19 | CCOc1ncccc1-c1cc(NCc2cnn(C)c2)c2c(n1)c(C)nn2C(C)C [Example 9, 5-(2-ethoxypyridin-3-yl)-1-isopropyl-3-methyl-N-((1-methyl-1H-pyrazol-4-yl)methyl)-1H-pyrazolo[4,3-b]pyridin-7-amine] | 2.6 nM | 17 nM | –
20 | CCOc1ncccc1-c1cc(NCc2nnc(C)o2)c2c(cnn2C(C)CC)n1 (single isomer, unassigned) [Example 139, 5-(2-ethoxy-3-pyridyl)-N-[(5-methyl-1,3,4-oxadiazol-2-yl)methyl]-1-[1-methylpropyl]pyrazolo[4,3-b]pyridin-7-amine] | 330 nM | – | IC50 (PDE1C): 530 nM
21 | CCOc1ncccc1-c1cc(NCc2nnn(C)n2)c2c(n1)c(C)nn2C(C)CC (single isomer, unassigned) [Example 127, 5-(2-ethoxy-3-pyridyl)-3-methyl-1-[1-methylpropyl]-N-[(2-methyltetrazol-5-yl)methyl]pyrazolo[4,3-b]pyridin-7-amine] | – | – | IC50 (PDE1B; PDE1B, IC50 (nM)): 0.31 nM
22 | CCOc1ncccc1-c1cc(NCc2ccc(=O)n(C)c2)c2c(n1)c(C)nn2C(C)C [Example 45] | – | – | IC50 (PDE1B; read-out: PDE1B, IC50): 0.62 nM
23 | CCOc1ncccc1-c1cc(NCc2cnc(C)o2)c2c(n1)c(C)nn2C(C)C [Example 4, 5-(2-ethoxy-3-pyridyl)-1-isopropyl-3-methyl-N-[(2-methyloxazol-5-yl)methyl]pyrazolo[4,3-b]pyridin-7-amine] | 8.6 nM | 19 nM | –
24 | Cc1coc(-c2cc(NCc3cnn(C)c3)c3c(n2)c(C)nn3C(C)C)n1 [Example 202, 1-isopropyl-3-methyl-N-((1-methyl-1H-pyrazol-4-yl)methyl)-5-(4-methyloxazol-2-yl)-1H-pyrazolo[4,3-b]pyridin-7-amine] | 92 nM | 170 nM | –
25 | CCOc1ncccc1-c1cc(NCc2cc(C)n(C)n2)c2c(cnn2C(C)C)n1 [Example 44, N-[(1,5-dimethylpyrazol-3-yl)methyl]-5-(2-ethoxy-3-pyridyl)-1-isopropyl-pyrazolo[4,3-b]pyridin-7-amine] | 19 nM | 70 nM | –
26 | CCOc1ncccc1-c1cc(NCc2ncn(C)n2)c2c(n1)c(C)nn2C(C)CC (single isomer, unassigned) [Example 121, 5-(2-ethoxy-3-pyridyl)-3-methyl-1-[1-methylpropyl]-N-[(1-methyl-1,2,4-triazol-3-yl)methyl]pyrazolo[4,3-b]pyridin-7-amine] | – | – | IC50 (PDE1B; PDE1B, IC50 (nM)): 0.47 nM
27 | COc1ncccc1CNc1cc(-c2cccnc2OC)nc2c(C)nn(C(C)C)c12 [Example 95, 1-isopropyl-5-(2-methoxy-3-pyridyl)-N-[(2-methoxy-3-pyridyl)methyl]-3-methyl-pyrazolo[4,3-b]pyridin-7-amine] | 42 nM | – | –
28 | CCOc1ncccc1-c1cc(NCc2nccc(C)n2)c2c(n1)c(C)nn2C(C)C [Example 75, 5-(2-ethoxy-3-pyridyl)-1-isopropyl-3-methyl-N-[(4-methylpyrimidin-2-yl)methyl]pyrazolo[4,3-b]pyridin-7-amine] | 9.9 nM | 33 nM | –
29 | CCOc1ncccc1-c1cc(NCc2cn(C)cn2)c2c(n1)c(C)nn2C(C)CC (single isomer, unassigned) [Example 132, 5-(2-ethoxy-3-pyridyl)-3-methyl-N-[(1-methylimidazol-4-yl)methyl]-1-[1-methylpropyl]pyrazolo[4,3-b]pyridin-7-amine] | – | – | IC50 (PDE1B; PDE1B, IC50 (nM)): 0.045 nM
30 | CCC1COC(=O)N1c1cc(NCc2cnn(C)c2)c2c(n1)c(C)nn2C(C)C (stereo not shown) [Example 156, 4-ethyl-3-[1-isopropyl-3-methyl-7-[(1-methylpyrazol-4-yl)methylamino]pyrazolo[4,3-b]pyridin-5-yl]oxazolidin-2-one] | – | 5.1 nM | –
31 | CCOc1ncccc1-c1cc(NCc2csc(C)n2)c2c(n1)c(C)nn2C(C)C [Example 11, 5-(2-ethoxy-3-pyridyl)-1-isopropyl-3-methyl-N-[(2-methylthiazol-4-yl)methyl]pyrazolo[4,3-b]pyridin-7-amine] | 9.6 nM | 30 nM | –
